Measured values from publication PMC8564858, “Flavonoid-based inhibitors of the Phi-class glutathione transferase from black-grass to combat multiple herbicide resistance” (Organic & Biomolecular Chemistry, 2021).

Legend:
AmGSTF1 [1] = test: CDNB assay: inhibition of AmGSTF1-catalysed glutathionylation of CDNB; assay type: biochemical, Alopecurus myosuroides; settings: for CDNB Assay % Inhibition: three replicate measurements
[2] = Aqueous solubility (qualitative); assay type: physicochemical
wildtype AmGSTF1 = assay type: biochemical, Alopecurus myosuroides; settings: 100 µM, 60 min at 20 °C, diluted 1:100, activity towards CDNB
AmGSTF1 [3] = test: Isothermal titration calorimetry; assay type: binding, Alopecurus myosuroides
Description: Coot and reciprocal space refinement using Refmac. Further experimental detail is summarised in
Molecular docking was performed using the GOLD package with CHEMPLP as the target fitness function
12. The structure of the AmGSTF1 in the tetragonal unit cell with both loops in their closed conformation
was used as a starting model for docking. The ligand (GS-NBF) was removed from the binding site. The
search space was defined by the position of the ligand in the cavity with a margin of 10 and 15 Å,
respectively. The ligands were built with Avogadro [XX]. In each case, the starting geometry minimized
using the MMFF94 forcefield [xx]. Each ligand was docked with 30 independent genetic algorithm using
the diverse solution settings in order to explore a maximum parameter space.
Isothermal Titration Calorimetry
AmGSTF1 was dialysed into HEPES buffer (pH 7.6) overnight at 3 °C and the concentration adjusted to
10 µM in a volume of 3 mL. The activity of the enzyme was calculated prior to use according to the
standard CDNB biochemical assay. A solution of the desired ligand (≥ 10 x protein concentration, 200
µL) was prepared in the same HEPES buffer as above. All samples were degassed for 5 minutes prior to
use using a thermovac at 24 °C. AmGSTF1 was incubated in the cell and the ligand in the syringe, […]
experiment run to completion or until no more titrant was available. The data obtained was analysed […]

AmGSTF1 [4] = test: Thermal shift assay; assay type: binding, Alopecurus myosuroides; settings: difference in melting temperature compared to no ligand
[5] = system: HS black-grass (Rothamsted); test: Petri-dish seedling assay with pendimethalin; assay type: in vivo, Alopecurus myosuroides
MHR black-grass (Peldon) = test: Petri-dish seedling assay with pendimethalin; assay type: in vivo, Alopecurus myosuroides; settings: for Percentage of normal shoot 14 d after treatment: Peldon-MHR
MHR black-grass plants = test: Spray assay on three-leaf stage plants with pendimethalin; assay type: in vivo, Alopecurus myosuroides; settings: three-leaf stage (BBCH 13); 70 μM compound 55, 24 h prior to spray with 35 μM pendimethalin
AtGSTF8 = test: CDNB assay on AtGSTF8 (selectivity); assay type: biochemical, A. thaliana
Description: Having established flavonoids as AmGSTF1 ligands with the potential to reverse the MHR phenotype, the scope for optimising their activity, selectivity, and physicochemical profile using synthetic modifications was explored. Using 5,7-dihydroxyflavone (chrysin, 2) as precursor (Fig. 3a), the synthesis of flavonoid derivatives with simple A-ring modifications were undertaken. Each compound was then assessed for its binding to the protein target using both thermal shift assays and by the inhibition of enzyme activity toward CDNB (Table S4 ^‡). The 2-methylchromen-4-one derivative 12 (Table S4; ^‡ entry 11) was synthesised to assess the effect of replacement of the aryl ring at the 2-position (B-ring) with a smaller group. […] Alternative 2-substituents, including amides 16, cyclic amines 17 and (hetero)arenes 18, each introduced from the corresponding carboxylic acid 13, thioether 14 and chloride 15 using standard acylation, SNAr and Pd-catalysed cross-coupling reactions (Fig. 3b). […] However, for these compounds, the assessment of activity was difficult due to their low solubility in aqueous solutions. […] To confirm if the binding observed with these synthetic analogues was specific to AmGSTF1, as determined by the inhibition of CDNB activity, the effect of this flavonoid series on an alternative well described phi class GST from A. thaliana (AtGSTF8), was investigated. […]

AmGSTF1 [6] = test: Ligand fishing with strep-tagged AmGSTF1 immobilised on StrepTactin column; assay type: binding, Alopecurus myosuroides; settings: ligand cocktail, each at 100 µM
[7] = system: MHR in black-grass plants; test: Preliminary spray trial with pinoxaden; assay type: in vivo, Alopecurus myosuroides; settings: black-grass plants exposed to the herbicide pinoxaden
wheat = test: Preliminary spray trial, companion crop phytotoxicity; assay type: in vivo
[8] = 70 uM compound 55 for 24 h prior to 5 ppm pendimethalin

| SMILES | CDNB Assay % Inhibition (AmGSTF1 [1]; 10 µM compound) [%] | CDNB Assay % Inhibition (AmGSTF1 [1]; 100 µM compound) [%] | Thermal Shift Assay ∆Tm (AmGSTF1 [4]; 1 µM) | Thermal Shift Assay ∆Tm (AmGSTF1 [4]; 10 µM) | Thermal Shift Assay ∆Tm (AmGSTF1 [4]; 100 µM) | other results |
| --- | --- | --- | --- | --- | --- | --- |
| O=c1c(O)c(-c2ccc(O)c(O)c2)oc2cc(O)cc(O)c12 [compound 3, quercetin, reference compound] | 44 | 94 |  |  |  | Solubility in aqueous solutions (in words) [2]: high solubility |
| NC(CCC(=O)NC(CSc1ccc([N+](=O)[O-])c2nonc12)C(=O)NCC(=O)O)C(=O)O (stereo not drawn) [NBD-SG] |  |  |  |  |  | Inhibition vs. DMSO control (wildtype AmGSTF1): 43%; Mean specific activity (wildtype AmGSTF1; mean ± SD, n = 3): 11.2 ± 1.1 nmol s-1 mg-1 protein; Binding to AmGSTF1 by ITC (AmGSTF1 [3]): binding to AmGSTF1 confirmed |
| COc1cc(OC)c2c(=O)cc(-c3nccs3)oc2c1 [compound 23] | 23 | 83 | -0.40 | -0.47 | -0.50 | Solubility in aqueous solutions (in words) [2]: increased solubility |
| CCCCCCCCCCC(Oc1cc(O)cc2oc(-c3ccc(O)c(O)c3)c(O)c(=O)c12)C(=O)O (stereo not drawn) [compound 55] | 96 | 100 | 0.20 | 2.17 | 1.10 | Inhibitory activity toward AmGSTF1 in the CDNB assay (in words) (AmGSTF1 [1]): excellent inhibitory activity; CDNB Assay % Inhibition (AmGSTF1 [1]; 1 µM compound): 70%; Percentage of normal shoot 14 d after treatment [5, 8]: 50%; Resistance to pendimethalin in MHR seedlings (MHR black-grass (Peldon); 70 μM compound 55, 24 h prior to 5 ppm pendimethalin, compared to untreated seedlings): reduced; Percentage of normal shoot 14 d after treatment (MHR black-grass (Peldon); [8]): 66%; Pendimethalin resistance in established MHR plants (MHR black-grass plants): reversed pendimethalin resistance; Selectivity toward AmGSTF1 as compared to AtGSTF8 (AtGSTF8): good selectivity; Solubility in aqueous solutions (in words) [2]: sufficient soluble |
| COc1cc(OC)c2c(=O)cc(-c3nnc(C)o3)oc2c1 [compound 19] | 8 | 53 | -0.10 | -0.17 | -0.27 |  |
| COc1cc(OC)c2c(=O)cc(-c3ccc(F)cc3)oc2c1 [18b] | 23 | 78 | 0.17 | 0.33 | 0.27 |  |
| COc1cc(OC)c2c(=O)cc(N3CCN(C)CC3)oc2c1 [17a] |  | 16 | 0 | -0.03 | 0.20 |  |
| COc1cc(OC(C)C(=O)O)c2c(=O)cc(-c3ccccc3)oc2c1 (stereo not drawn) [compound 41] | 14 |  | 0.20 | 0.20 | 1.10 |  |
| COc1cccc(-c2cc(=O)c3c(OC)cc(OC)cc3o2)c1 [18f] | 15 | 79 | 0.33 | 0.2 | -0.17 |  |
| COC(=O)c1ccc(-c2cc(=O)c3c(OC)cc(OC)cc3o2)cc1 [18i] | 20 | 58 | 0.27 | 0.30 | 0.27 |  |
| O=c1cc(-c2ccc(O)cc2)oc2cc(O)cc(O)c12 [compound 1, apigenin] | 71 | 87 |  |  |  | Binding/retention by immobilised AmGSTF1 (AmGSTF1 [6]): selectively retained and bound; Synergistic effect counteracting MHR [7]: clear synergistic effect; Phytotoxic effect in companion crop (wheat): no adverse phytotoxic effect |
| COc1cc(OC)c2c(=O)cc(N3CCOCC3)oc2c1 [17b] | 0 | 37 | 0.06 | 0.23 | 0.20 |  |
| COc1cc(OC)c2c(=O)cc(-c3ccc(S(C)(=O)=O)cc3)oc2c1 [18l] | 14 | 35 | 0.13 | 0.20 | 0.30 |  |
| CCC(CC)Nc1c([N+](=O)[O-])cc(C)c(C)c1[N+](=O)[O-] [Pendimethalin, pendimethalin, reference compound] |  |  |  |  |  | Percentage of normal shoot 14 d after treatment ([5]; 5 ppm pendimethalin alone): 52%; Percentage of normal shoot 14 d after treatment (MHR black-grass (Peldon); 5 ppm pendimethalin alone): 82% |
| CCCCC(=O)NCCCCC(Oc1cc(OC)cc2oc(-c3ccccc3)cc(=O)c12)C(=O)O (stereo not drawn) [compound 52] | 39 |  | 0.13 | 0.30 | 1.10 | CDNB Assay % Inhibition (AmGSTF1 [1]; 1 µM compound): 6% |
| O=c1cc(-c2ccccc2)oc2ccccc12 [compound 7, reference compound] |  | 14 | 0.3 | 0.0 | -0.2 |  |
| COc1cc(OC)c2c(=O)cc(-c3ccncc3)oc2c1 [18m] | 10 | 50 | 0.23 | 0.27 | 0.23 |  |
